Patent publication US20180265515A1 (Genentech, Inc., priority 2015, published 2018)

Key:
[1] = biological target: T1, isolated recombinant JAK2 kinase domain (Homo sapiens, UniProt O60674); experiment: JAK2 enzyme assay (Caliper LabChip, Ki); type: biochemical; details: 25 μM ATP
T1 construct: The activity of the isolated recombinant JAK1 and JAK2 kinase domain was measured
How it was run: (§1)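 Caliper LabChip read-out: fraction of FAM-labeled JAK3-derived peptide converted to phosphopeptide by isolated JAK1/JAK2 kinase domain. Reaction 30 min, 22° C; stopped with EDTA, 50 mM final. Ki via Morrison tight-binding model, Ki=Ki,app/(1+[ATP]/Km,app).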

[2] = tested on: JAK1-dependent STAT6 phosphorylation downstream of IL-13 stimulation in BEAS-2B human bronchial epithelial cells; experiment: JAK1 pathway assay in BEAS-2B cells (IL-13 stimulated STAT6 phosphorylation, MSD); type: cell-based; details: read-out: P-STAT6 BEAS2B + IL13 IC50
How it was run: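 BEAS-2B human bronchial epithelial cells, plated the day before in complete growth medium, were preincubated with compound for 1 hr at 37° C (0.2% DMSO final), then stimulated with IL-13 at its EC90 for 15 min. STAT6 phosphorylation in lysates was read by MSD; EC50 was taken as 50% inhibition versus DMSO control.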

[3] = biological target: T2, isolated recombinant JAK1 kinase domain (Homo sapiens, UniProt P23458); experiment: JAK1 enzyme assay (Caliper LabChip, Ki); type: biochemical; details: recombinant JAK1 kinase domain, 25 μM ATP
T2 construct: The activity of the isolated recombinant JAK1 and JAK2 kinase domain was measured
How it was run: as §1

T1 sequence (O60674 849-1124 limits assumed): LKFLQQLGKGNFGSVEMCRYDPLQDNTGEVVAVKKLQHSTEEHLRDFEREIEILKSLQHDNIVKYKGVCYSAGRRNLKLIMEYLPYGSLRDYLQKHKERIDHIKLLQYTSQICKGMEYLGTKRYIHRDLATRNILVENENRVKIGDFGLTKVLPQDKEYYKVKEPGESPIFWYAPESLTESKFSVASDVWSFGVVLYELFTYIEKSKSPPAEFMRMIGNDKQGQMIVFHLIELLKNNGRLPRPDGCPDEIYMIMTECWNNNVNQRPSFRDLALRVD
T2 sequence (P23458 875-1153 limits assumed): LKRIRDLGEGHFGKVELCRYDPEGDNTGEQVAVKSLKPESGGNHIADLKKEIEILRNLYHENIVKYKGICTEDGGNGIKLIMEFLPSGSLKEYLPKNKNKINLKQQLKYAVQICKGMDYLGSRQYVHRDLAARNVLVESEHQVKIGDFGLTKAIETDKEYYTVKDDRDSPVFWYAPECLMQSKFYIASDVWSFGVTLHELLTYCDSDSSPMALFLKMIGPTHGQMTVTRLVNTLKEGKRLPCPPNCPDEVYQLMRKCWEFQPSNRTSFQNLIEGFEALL

Structure (SMILES)	Ki [1] [nM]	IC50 [2] [nM]	Ki [3] [nM]
CC(C)Sc1ccc(OC(F)F)c(-c2nn(CC(=O)N3CCN(CCCC#N)CC3)cc2NC(=O)c2cnn3cccnc23)c1 [Example 103, N-[1-[2-[4-(3-cyanopropyl)piperazin-1-yl]-2-oxo-ethyl]-3-[2-(difluoromethoxy)-5-isopropylsulfanyl-phenyl]pyrazol-4-yl]pyrazolo[1,5-a]pyrimidine-3-carboxamide]	0.75	41	0.33
CC(C)Sc1ccc(OC(F)F)c(-c2nn(CC(=O)N3CCN(CC4CCN(CC(=O)N5CCOCC5)CC4)CC3)cc2NC(=O)c2cnn3cccnc23)c1 [Example 141, N-[3-[2-(difluoromethoxy)-5-isopropylsulfanyl-phenyl]-1-[2-[4-[[1-(2-morpholino-2-oxo-ethyl)-4-piperidyl]methyl]piperazin-1-yl]-2-oxo-ethyl]pyrazol-4-yl]pyrazolo[1,5-a]pyrimidine-3-carboxamide]	1.9	36	0.78
N#CC1(CNC2CCN(C(=O)Cn3cc(NC(=O)c4cnn5cccnc45)c(-c4cc(SC5CC5)ccc4OC(F)F)n3)CC2)CC1 [Example 166, N-[1-[2-[4-[(1-cyanocyclopropyl)methylamino]-1-piperidyl]-2-oxo-ethyl]-3-[5-cyclopropylsulfanyl-2-(difluoromethoxy)phenyl]pyraxol-4-yl]pyrazolo[1,5-a]pyrimidine-3-carboxamide]	0.72	17	0.29
CCSc1ccc(OC(F)F)c(-c2n[nH]cc2NC(=O)c2cnn3cccnc23)c1 [Example 192, N-[3-[2-(difluoromethoxy)-5-ethylsulfanyl-phenyl]-1H-pyrazol-4-yl]pyrazolo[1,5-a]pyrimidine-3-carboxamide]	0.055	2	0.12
CSc1ccc(OC(F)F)c(-c2nn(C3(CC#N)CN(C)C3)cc2NC(=O)c2cnn3cccnc23)c1 [Example 76, N-(1-(3-(cyanomethyl)-1-methylazetidin-3-yl)-3-(2-(difluoromethoxy)-5-(methylthio)phenyl)-1H-pyrazol-4-yl)pyrazolo[1,5-a]pyrimidine-3-carboxamide]	1	60	1.4
CSc1ccc(OC(F)F)c(-c2nn(CC(=O)N3CCC(N(C)CCC(=O)N4CCC4)CC3)cc2NC(=O)c2cnn3cccnc23)c1 [Example 68, N-[1-[2-[4-[[3-(azetidin-1-yl)-3-oxo-propyl]-methyl-amino]-1-piperidyl]-2-oxo-ethyl]-3-[2-(difluoromethoxy)-5-methylsulfanyl-phenyl]pyrazol-4-yl]pyrazolo[1,5-a]pyrimidine-3-carboxamide]	0.85	300	0.47
CSc1ccc(OC(F)F)c(-c2nn(CC(=O)N3CCC(CN4CCNCC4)CC3)cc2NC(=O)c2cnn3cccnc23)c1 [Example 95, N-[3-[2-(difluoromethoxy)-5-methylsulfanyl-phenyl]-1-[2-oxo-2-[4-(piperazin-1-ylmethyl)-1-piperidyl]ethyl]pyrazol-4-yl]pyrazolo[1,5-a]pyrimidine-3-carboxamide]	0.68	150	0.37
CN1CCN(C2CCN(C(=O)Cn3cc(NC(=O)c4cnn5cccnc45)c(-c4cc(SC5CC5)ccc4OC(F)F)n3)CC2)CC1 [Example 164, N-[3-[5-cyclopropylsulfanyl-2-(difluoromethoxy)phenyl]-1-[2-[4-(4-methylpiperazin-1-yl)-1-piperidyl]-2-oxo-ethyl]pyrazol-4-yl]pyrazolo[1,5-a]pyrimidine-3-carboxamide]	1.5	32	0.55
CSc1ccc(OC(F)F)c(-c2nn(CC(=O)N3CCC(NCC4(C#N)CC4)CC3)cc2NC(=O)c2cnn3cccnc23)c1 [Example 41, N-[1-[2-[4-[(1-cyanocyclopropyl)methylamino]-1-piperidyl]-2-oxo-ethyl]-3-[2-(difluoromethoxy)-5-methylsulfanyl-phenyl]pyrazol-4-yl]pyrazolo[1,5-a]pyrimidine-3-carboxamide]	0.45	20	0.27
CSc1ccc(OC(F)F)c(-c2nn(CC(=O)N3CCC(N4CCOC[C@@H]4C)CC3)cc2NC(=O)c2cnn3cccnc23)c1 [Example 61, N-[3-[2-(difluoromethoxy)-5-methylsulfanyl-phenyl]-1-[2-[4-[(3S)-3-methylmorpholin-4-yl]-1-piperidyl]-2-oxo-ethyl]pyrazol-4-yl]pyrazolo[1,5-a]pyrimidine-3-carboxamide]	0.48	13	0.25
CSc1ccc(OC(F)F)c(-c2nn(CC(=O)N3CCC(N(C)C4COC4)CC3)cc2NC(=O)c2cnn3cccnc23)c1 [Example 46, N-(3-(2-(difluoromethoxy)-5-(methylthio)phenyl)-1-(2-(4-(methyl(oxetan-3-yl)amino)piperidin-1-yl)-2-oxoethyl)-1H-pyrazol-4-yl)pyrazolo[1,5-a]pyrimidine-3-carboxamide]	0.44	22	0.25
O=C(Nc1cn(CC(=O)N2CCC(N3CCOCC3)CC2)nc1-c1cc(SC2CC2)ccc1OC(F)F)c1cnn2cccnc12 [Example 161, N-[3-[5-cyclopropylsulfanyl-2-(difluoromethoxy)phenyl]-1-[2-(4-morpholino-1-piperidyl)-2-oxo-ethyl]pyrazol-4-yl]pyrazolo[1,5-a]pyrimidine-3-carboxamide]	0.64	16	0.3
CSc1ccc(OC(F)F)c(-c2nn(CC(=O)N3CCN(C4CCSCC4)CC3)cc2NC(=O)c2cnn3cccnc23)c1 [Example 66, N-[3-[2-(difluoromethoxy)-5-methylsulfanyl-phenyl]-1-[2-oxo-2-(4-tetrahydrothiopyran-4-ylpiperazin-1-yl)ethyl]pyrazol-4-yl]pyrazolo[1,5-a]pyrimidine-3-carboxamide]	0.24	5	0.2
CSc1ccc(OC(F)F)c(-c2nn(CC(=O)N3CCC(CN4CCOCC4)CC3)cc2NC(=O)c2cnn3cccnc23)c1 [Example 7, N-[3-[2-(difluoromethoxy)-5-methylsulfanyl-phenyl]-1-[2-[4-(morpholinomethyl)-1-piperidyl]-2-oxo-ethyl]pyrazol-4-yl]pyrazolo[1,5-a]pyrimidine-3-carboxamide]	0.49	4.8	0.3
CC(C)Sc1ccc(OC(F)F)c(-c2nn(CC(=O)N3CCC(N4CCn5ccnc5C4)CC3)cc2NC(=O)c2cnn3cccnc23)c1 [Example 146, N-[3-[2-(difluoromethoxy)-5-isopropylsulfanyl-phenyl]-1-[2-[4-(6,8-dihydro-5H-imidazo[1,2-a]pyrazin-7-yl)-1-piperidyl]-2-oxo-ethyl]pyrazol-4-yl]pyrazolo[1,5-a]pyrimidine-3-carboxamide]	0.72	170	0.37
CSc1ccc(OC(F)F)c(-c2nn(CC(=O)N3CCC(N(CCN4CCOCC4)C4COC4)CC3)cc2NC(=O)c2cnn3cccnc23)c1 [Example 92, N-[3-[2-(difluoromethoxy)-5-methylsulfanyl-phenyl]-1-[2-[4-[2-morpholinoethyl(oxetan-3-yl)amino]-1-piperidyl]-2-oxo-ethyl]pyrazol-4-yl]pyrazolo[1,5-a]pyrimidine-3-carboxamide]	0.77	1000	0.61
CC(C)Sc1ccc(OC(F)F)c(-c2nn(CC(=O)N3CCN(C4CCSCC4)CC3)cc2NC(=O)c2cnn3cccnc23)c1 [Example 119, N-[3-[2-(difluoromethoxy)-5-isopropylsulfanyl-phenyl]-1-[2-oxo-2-(4-tetrahydrothiopyran-4-ylpiperazin-1-yl)ethyl]pyrazol-4-yl]pyrazolo[1,5-a]pyrimidine-3-carboxamide]	0.96	30	0.47
CC(C)Sc1ccc(OC(F)F)c(-c2nn(CC(=O)N3CCC(N4CC(C#N)C4)CC3)cc2NC(=O)c2cnn3cccnc23)c1 [Example 129, N-(1-[2-[4-(3-cyanoazetidin-1-yl)piperidin-1-yl]-2-oxoethyl]-3-[2-(difluoromethoxy)-5-(propan-2-ylsulfanyl)phenyl]-1H-pyrazol-4-yl)pyrazolo[1,5-a]pyrimidine-3-carboxamide]	0.99	26	0.42
CSc1ccc(OC(F)F)c(-c2nn(CC(=O)N3CCC(N4CCn5nccc5C4)CC3)cc2NC(=O)c2cnn3cccnc23)c1 [Example 79, N-[3-[2-(difluoromethoxy)-5-methylsulfanyl-phenyl]-1-[2-[4-(6,7-dihydro-4H-pyrazolo[1,5-a]pyrazin-5-yl)-1-piperidyl]-2-oxo-ethyl]pyrazol-4-yl]pyrazolo[1,5-a]pyrimidine-3-carboxamide]	0.44	35	0.39
CC(C)Sc1ccc(OC(F)F)c(-c2nn(CC(=O)N3CCN(C4CCOCC4)CC3)cc2NC(=O)c2cnn3cccnc23)c1 [Example 125, N-[3-[2-(difluoromethoxy)-5-isopropylsulfanyl-phenyl]-1-[2-oxo-2-(4-tetrahydropyran-4-ylpiperazin-1-yl)ethyl]pyrazol-4-yl]pyrazolo[1,5-a]pyrimidine-3-carboxamide]	0.94	17	0.47
